One test deals with Keratinocyte. The test can be described thus: Antiproliferative activity against mouse keratinocytes. It counts as functional, cell-based.
Another test deals with Rattus norvegicus. Put plainly: Inhibition of calciuria in rat at 10 ug/kg, po administered qd for 1 week. The class given is functional, organism-based.
Test [1] can be described thus: Antiproliferative activity against mouse keratinocytes at 10 nM relative to calcitrol. The class given is functional, Keratinocyte.

The source made the active and inactive calls. The rule behind the calls is not given here.

Take `C=C1/C(=C\C=C2/CCC[C@]3(C)C([C@H](C)CCCS(C)(=O)=O)=CC[C@@H]23)C[C@@H](O)C[C@@H]1O`: the outcome in the test on Keratinocyte was Active. Further, in the test on Rattus norvegicus, the inhibition result was “Active”.
As to `C=C1/C(=C\C=C2/CCC[C@]3(C)C([C@H](C)CCCS(=O)(=O)C(C)C)=CC[C@@H]23)C[C@@H](O)C[C@@H]1O`, the result with Keratinocyte was Active. Further, the inhibition entry in the test with Rattus norvegicus is “Active”.
`C=C1/C(=C\C=C2/CCC[C@]3(C)[C@@H]([C@H](C)CCCC(C)(C)O)CC[C@@H]23)C[C@@H](O)C[C@@H]1O`: in the test on Rattus norvegicus, the inhibition result is “Active”.
On to `C=C1/C(=C\C=C2/CCC[C@]3(C)C([C@H](C)CCCS(=O)(=O)C(F)(F)F)=CC[C@@H]23)C[C@@H](O)C[C@@H]1O`, for which the Ratio in test [1] is 2. For the same compound, the inhibition result in the test on Rattus norvegicus was “Active”.

The values are drawn from ChEMBL document CHEMBL1157003, “'Novel alkyl side chain sulfone 1alpha,25-dihydroxyvitamin D3 analogs: a comparison of in vitro antiproliferative activities and in vivo calcemic activities'” (2009).
